Experimental data from EP4818194A1, “CHEMICALLY MODIFIED POLYPEPTIDE” (priority 2023, dated 2025).
Where a SMILES comes first, the peptide text is derived from it. Where no end group is shown, it is not given here. [ ]: non-standard residue; d: D form. pY = N[C@@H](Cc1ccc(OP(=O)(O)O)cc1)C(=O)O; NMeY = CN[C@@H](Cc1ccc(O)cc1)C(=O)O; Tle = CC(C)(C)[C@H](N)C(=O)O; Aib = CC(C)(N)C(=O)O

Tests used:
PC-12 cells = type: cell-based; conditions: for Normalized cell viability (%): PC-12 cells, 10 nM polypeptide pretreatment for 30 minutes, then glutamate stimulation for 24 hours, normalized to positive control MK-801 and glutamate group
Description: PC-12 cells (a […] cell line derived from rat adrenal medulla) were cultured in DMEM/F12 complete medium until eaching 80-90% confluence. The cells were then digested, collected, resuspended, and seeded at density of 5 × 10^4 cells per well in a 24-well plate precoated with coverslips. Following 26 hours of cell culture, excitotoxic cell death was induced by glutamate stimulation. For model establishment: an appropriate amount of glutamate was weighed and dissolved in DMEM/F12 medium to prepare a stock solution. After filtration, the stock solution was diluted with culture medium and administered to the cells via medium replacement. The cells were further incubated for 24 hours after administration.
Prior to glutamate modeling, cells incubated as described in the previous step were pretreated with 10 nM of the polypeptide compound according to the present application for 30 minutes, followed by glutamate stimulation.
Cells treated with the polypeptide compound according to the present application were stained with propidium iodide to assess cell death. After discarding the culture medium, the cells were washed with PBS, and propidium iodide/Hoechst was added. After incubating for 30 minutes, the cells were removed and the staining solution was discarded. After washing with PBS, the cells were fixed and mounted, and subjected to image acquisition under a fluorescence microscope. The number of propidium iodide-positive cells and Hoechst-positive cells in the acquired images was counted to calculate the cell viability. MK-801 was used as the positive control compound. The normalized cell viability was calculated using the following formula: (cell viability of the compound group - cell viability of the glutamate group) / (cell viability of the positive control group - cell viability of the glutamate group) × 100%.
Based on the above dose-response studies of the compound, the inhibitory effects of different small-molecule compounds at the same dose (10 nM) against excitotoxic death in PC-12 neurons cells were further compared. […]

[1] = Pharmacokinetic characteristics in rats after intravenous administration (plasma, LC-MS/MS); type: in vivo; conditions: rat, SD rats, tail vein, 10 mg/kg; for Vd: read-out: Vss
Description: Intravenous administration: Three SD rats per group were administered the compounds of Example 1, Example 2, Example 3, Example 6, Example 7, Example 17, and Example 19 via the tail vein, respectively, at a dose of 10 mg/kg. all SD rats were allowed free access to food and water after administration. Plasma was collected 3 min, 10 min, 30 min, 1 h, 2 h, 6 h, 10 h, and 24 h after administration, with 3 rats per time point.
Sample processing: Whole blood was anticoagulated with EDTA-K2. Within 30 minutes of collection, the blood was centrifuged at 3000g for 10 minutes at 2-8°C. After centrifugation, the separated plasma was transferred to new 1.5 mL centrifuge tubes and stored at -80°C.
Analytical method: The concentrations of each compounds in rat plasma were determined by LC-MS/MS using Shimadzu LC30AD and AB Sciex QTRAP 6500+instruments. The relevant pharmacokinetic parameters after administration were calculated. Table 5: Pharmacokinetic parameters after administration

For `CN[C@@H](Cc1ccc(O)cc1)C(=O)NC(C)(C)C(=O)N[C@@H](CCCNC(=N)N)C(=O)N[C@@H](CCCCN)C(=O)N[C@@H](CCCCN)C(=O)N[C@@H](CCCNC(=N)N)C(=O)N[C@@H](CCCNC(=N)N)C(=O)N[C@@H](CCC(=O)O)C(=O)N[C@@H](CCCNC(=N)N)C(=O)N[C@@H](CCCNC(=N)N)C(=O)N[C@@H](CCCNC(=N)N)C(=O)N[C@@H](CCCCN)C(=O)N[C@@H](CCCCN)C(=O)N[C@@H](CC(=O)O)C(=O)N[C@@H](CCCNC(=N)N)C(=O)N[C@@H](CC(=O)O)C(=O)N[C@@H](CCCCN)C(=O)N[C@H](C(=O)N[C@@H](CCCNC(=N)N)C(=O)N[C@@H](CCCNC(=N)N)C(=O)N[C@@H](CCC(=O)O)C(=O)N[C@@H](Cc1c[nH]cn1)C(=O)N[C@@H](CO)C(=O)N[C@@H](Cc1ccc(O)cc1)C(N)=O)C(C)(C)C` [Example 24, Me-YAibRKKRRERRRKKDRDKTleRREHSY-NH2] (H-[NMeY][Aib]RKKRRERRRKKDRDK[Tle]RREHSY-NH2), the EC50 (PC-12 cells; 26 h) was 1.35 nM.

`CN[C@@H](Cc1ccc(O)cc1)C(=O)NCC(=O)N[C@@H](CCCNC(=N)N)C(=O)N[C@@H](CCCCN)C(=O)N[C@@H](CCCCN)C(=O)N[C@@H](CCCNC(=N)N)C(=O)N[C@@H](CCCNC(=N)N)C(=O)N[C@@H](CCC(N)=O)C(=O)N[C@@H](CCCNC(=N)N)C(=O)N[C@@H](CCCNC(=N)N)C(=O)N[C@@H](CCCNC(=N)N)C(=O)N[C@@H](CCCCN)C(=O)N[C@@H](CCCCN)C(=O)N[C@@H](CC(N)=O)C(=O)N[C@@H](CCCNC(=N)N)C(=O)N[C@@H](CC(N)=O)C(=O)N[C@@H](CCCCN)C(=O)N[C@@H](CC(C)C)C(=O)N[C@@H](CCCNC(=N)N)C(=O)N[C@@H](CCCNC(=N)N)C(=O)N[C@@H](CCC(N)=O)C(=O)N[C@@H](Cc1c[nH]cn1)C(=O)N[C@@H](CO)C(=O)N[C@@H](Cc1ccc(O)cc1)C(=O)O` [Example 2] (H-[NMeY]GRKKRRQRRRKKNRNKLRRQHSY-OH) showed an MRT [1] of 1.84 h, a half-life [1] of 1.73 h and a Vd [1] of 3.94 L/kg.

“YGRKKRRQRRRKKNRNKLRRQHSY-NH2 [Example 6]” showed an MRT [1] of 1.65 h, a half-life [1] of 1.23 h and a Vd [1] of 2.53 L/kg.

With Ac-YGRKKRRQRRRKKNRNKLRRQHSY [Example 4] the “Normalized cell viability (%)” value (PC-12 cells) was 85.00%.

Compound `CN[C@@H](Cc1ccc(O)cc1)C(=O)NCC(=O)N[C@@H](CCCNC(=N)N)C(=O)N[C@@H](CCCCN)C(=O)N[C@@H](CCCCN)C(=O)N[C@@H](CCCNC(=N)N)C(=O)N[C@@H](CCCNC(=N)N)C(=O)N[C@@H](CCC(=O)O)C(=O)N[C@@H](CCCNC(=N)N)C(=O)N[C@@H](CCCNC(=N)N)C(=O)N[C@@H](CCCNC(=N)N)C(=O)N[C@@H](CCCCN)C(=O)N[C@@H](CCCCN)C(=O)N[C@@H](CC(=O)O)C(=O)N[C@@H](CCCNC(=N)N)C(=O)N[C@@H](CC(=O)O)C(=O)N[C@@H](CCCCN)C(=O)N[C@@H](CC(C)C)C(=O)N[C@@H](CCCNC(=N)N)C(=O)N[C@@H](CCCNC(=N)N)C(=O)N[C@@H](CCC(=O)O)C(=O)N[C@@H](Cc1c[nH]cn1)C(=O)N[C@@H](CO)C(=O)N[C@@H](Cc1ccc(O)cc1)C(N)=O` [Example 19] (H-[NMeY]GRKKRRERRRKKDRDKLRREHSY-NH2) has an MRT [1] of 1.73 h, a half-life [1] of 1.16 h and a Vd [1] of 9.11 L/kg.

In the case of “YGRKKRRQRRRKKNRNKLRRQHSY [Example 1, reference compound]”, the “Normalized cell viability (%)” value (PC-12 cells) is reported as 41.00%, the MRT [1] is reported as 0.87 h and the half-life [1] is reported as 0.76 h. It also gave a Vd [1] of 1.29 L/kg.

YGRKKRRERRRKKDRNKLRRQHSY [Example 17] showed an MRT [1] of 2.29 h, a half-life [1] of 1.66 h and a Vd [1] of 23.1 L/kg.

Compound “Ac-YGRKKRRQRRRKKNRNKLRRQHSY-NH2 [Example 7]” has an MRT [1] of 1.93 h, a half-life [1] of 1.51 h and a Vd [1] of 3.58 L/kg.

In the case of `CC(C)C[C@H](NC(=O)[C@H](CCCCN)NC(=O)[C@H](CC(N)=O)NC(=O)[C@H](CCCNC(=N)N)NC(=O)[C@H](CC(N)=O)NC(=O)[C@H](CCCCN)NC(=O)[C@H](CCCCN)NC(=O)[C@H](CCCNC(=N)N)NC(=O)[C@H](CCCNC(=N)N)NC(=O)[C@H](CCCNC(=N)N)NC(=O)[C@H](CCC(N)=O)NC(=O)[C@H](CCCNC(=N)N)NC(=O)[C@H](CCCNC(=N)N)NC(=O)[C@H](CCCCN)NC(=O)[C@H](CCCCN)NC(=O)[C@H](CCCNC(=N)N)NC(=O)CNC(=O)[C@@H](N)Cc1ccc(OP(=O)(O)O)cc1)C(=O)N[C@@H](CCCNC(=N)N)C(=O)N[C@@H](CCCNC(=N)N)C(=O)N[C@@H](CCC(N)=O)C(=O)N[C@@H](Cc1c[nH]cn1)C(=O)N[C@@H](CO)C(=O)N[C@@H](Cc1ccc(O)cc1)C(=O)O` [Example 3] (H-[pY]GRKKRRQRRRKKNRNKLRRQHSY-OH), the MRT [1] is reported as 1.71 h, the half-life [1] is reported as 1.28 h and the Vd [1] is reported as 7.9 L/kg.
